From patent US20260083722A1, “BIFUNCTIONAL DEGRADERS COMPRISING ELECTROPHILIC PROTACS THAT ENGAGE DCAF1 AND PHARMACEUTICAL COMPOSITIONS COMPRISING THE SAME” (THE SCRIPPS RESEARCH INSTITUTE, priority 2022, published 2026) come the findings set out here.

The structures appear in SMILES notation.

The assay has as its system ternary complex of FKBP12 and DCAF1. As to the kind of experiment: co-immunoprecipitation of DCAF1 with HA-FKBP12 in HEK293T cells (ternary complex). Type of assay: cell-based. The note with it: 5 μM, 2 h. As for the experimental part:
(A) Left, western blots showing effects of YT47R and YT47S on the immunoprecipitation (IP) of FLAG-DCAF1-WT or FLAG-DCAF1-C1113A with HA-FKBP12 in HEK293T cells co-expressing these proteins. Cells were treated with YT47R or YT47S (5 μM) for 2 h in the presence of MG132 (10 μM) prior to lysis and IP with an anti-HA antibody and western blotting for the indicated proteins (DCAF1, FKBP12, and ubiquitinated protein). Right, bar graphs quantifying DCAF1 (top) and ubiquitination (Ub) (bottom) in the indicated IP groups. (B) Left, western blots showing effects of YT47R and YT47S on the IP of endogenous DCAF1 with HA-FKBP12 in HEK293T cells expressing HA-FKBP12. Cells were treated with YT47R or YT47S (5 μM) for 2 h in the presence of MG132 (10 μM) prior to lysis and IP with an anti-HA antibody and western blotting for the indicated proteins (DCAF1, FKBP12). Right, bar graph quantifying DCAF1 in the indicated IP groups. For (A, B), data are mean values±SEM for three independent experiments. Statistical significance was calculated with unpaired two-tailed Student's t-tests comparing YT41R/YT47R- and DMSO-treated cells. **P<0.01, ****P<0.0001. (C) MS-ABPP quantification of IA-DTB labeling of the indicated cysteines in DCAF1 from FLAG-DCAF1-WT-expressing HEK293T cells treated with the indicated concentrations of YT47R (3 h) relative to cells treated with DMSO. Data represent average values±SEM from four independent experiments. Statistical significance was calculated with unpaired two-tailed Student's t-tests comparing compound to DMSO treated cells. *P<0.1.
Finally, we investigated whether electrophilic PROTACs induce a stable ternary complex of FKBP12 with DCAF1 and promote FKBP12 ubiquitination. […] A ternary complex was not observed in cells expressing the DCAF1-C1113A mutant (FIG. 6A), supporting that YT47R induces this complex through site-specifically reacting with C1113. […] In considering possible reasons why this ternary complex formation with endogenous DCAF1 was insufficient to support the degradation of recombinantly expressed FKBP12 (FIG. 4A), we speculate that our current PROTACs (YT41R, YT47R) may require further improvements in cellular properties to enable robust targeted protein degradation mediated by physiological concentrations of DCAF1.

In the case of `C=CC(=O)N1C[C@H](c2ccc(C(=O)NCCOCCOCCOCCNC(=O)COc3cccc([C@@H](CCc4ccc(OC)c(OC)c4)OC(=O)[C@@H]4CCCCN4C(=O)C(=O)C(C)(C)CC)c3)cc2)[C@@H]1C(=O)Nc1cccc2cccnc12` [YT47R], the “ternary complex of FKBP12 and DCAF1” value by setting is: (FLAG-DCAF1-WT, in the presence of MG132 (10 μM)) “clear evidence of a ternary complex”; (cells expressing the DCAF1-C1113A mutant, MG132) “not observed”. In addition, under “HEK293T expressing HA-FKBP12 only, MG132, compared to YT47S or DMSO”, the “ternary complex of endogenous DCAF1 with HA-FKBP12” value is “more robust ternary complex”.
